In brackets after ≈: the same amount, converted by molar mass. Where two headings read alike, the source gives them in different places. Where no end group is shown, it is not given here.
Key:
C. albicans CCARM 14020 = test: MIC in antibiotic-tolerant fungi; format: cell-based; details: Candida albicans, CCARM14020
Experimental: (§1) To measure the fungicidal activity of the peptide prepared in Example 1, the present inventors measured MIC, the minimal concentration that can keep the strain without being divided. For the measurement of fungicidal activity, pathogenic fungi selected from the group consisting of Candida albicans, C. catenulate, C. intermidia, C. rugosa, C. glabrata and C. melibiosica were used. After cultured in optimal media, the strains were diluted at the density of 2×10^5 cells/ml, which were then inoculated on microtitrate plates. The peptide synthesized in Example 1 and the positive control peptide (Melittin) were 2-fold diluted in solution 1 (10 mM sodium phosphate buffer, pH 7.2) and solution 2 (phosphate buffered saline) from 128 μM/well, which were added in the plate, followed by culture at 37° C. for 18˜24 hours. OD620 was measured with a microtitrate plate reader to determine MIC of each strain.
(§2) To measure the fungicidal activity of the peptide of the present invention in antibiotic-tolerant fungi, MIC of the peptide was measured by the same manner as described in Example <2-2> using RMPI 1640 and antibiotic-tolerant Candida albicans (C. albicans CCARM 14001, 14007, 14020).

C. albicans CCARM 14007 = test: MIC in antibiotic-tolerant fungi; format: cell-based; details: Candida albicans, CCARM14007; RMPI 1640
Experimental: as §1, §2

C. albicans CCARM 14001 = test: MIC in antibiotic-tolerant fungi; format: cell-based; details: Candida albicans, CCARM14001; RMPI 1640
Experimental: as §1, §2

S. aureus CCARM 3126 = test: MIC in antibiotic-tolerant strains; format: cell-based, Staphylococcus aureus
Source text: (§3) To measure the antibacterial activity of the peptide prepared in Example 1, the present inventors measured MIC, the minimal concentration that can keep the strain without being divided. For the measurement of antibacterial activity, Gram-positive bacteria selected from the group consisting of Bacillus subtilis, Staphylococcus aureus and Listeria monocytogenes, Gram-negative bacteria selected from the group consisting of Escherichia coli, Psedomonas aeruginosa and Salmonella typhimurium, and antibiotic-tolerant strains selected from the group consisting of E. coli (E. coli CCARM 1229, 1238), Salmonella (S. typhimurium CCARM 8007, 8009, 8013) and Staphylococcus (S. aureus CCARM 3089, 3090, 3108, 3114, 3126) were used. After cultured in optimal media, the strains were diluted at the density of 2×10^5 cells/ml, which were then inoculated on microtitrate plates. The peptide synthesized in Example 1 and the positive control peptide (Melittin) were 2-fold diluted in sodium phosphate buffer and phosphate buffered saline (PBS) from 200 μM/well, which were added in the plate, followed by culture at 37° C. for 18˜24 hours. OD620 was measured with a microtitrate plate reader to determine MIC of each strain. The results are presented in Table 1 (the number in bracket indicates the one obtained from PBS).

L. monocytogenes = format: cell-based, Listeria monocytogenes
Source text: as §3

[1] = system: S. typhimurium CCARM 8013; format: cell-based, Salmonella typhimurium
Source text: as §3

[2] = system: S. typhimurium CCARM 8007; format: cell-based, Salmonella typhimurium
Source text: as §3

[3] = system: S. typhimurium CCARM 8009; format: cell-based, Salmonella typhimurium
Source text: as §3

E. coli CCARM 1238 = format: cell-based, Escherichia coli
Source text: as §3

S. aureus CCARM 3090 = format: cell-based, Staphylococcus aureus
Source text: as §3

S. aureus CCARM 3114 = format: cell-based, Staphylococcus aureus
Source text: as §3

S. aureus CCARM 3089 = format: cell-based, Staphylococcus aureus
Source text: as §3

S. aureus CCARM 3108 = format: cell-based, Staphylococcus aureus
Source text: as §3

`OC(Cn1cncn1)(Cn1cncn1)c1ccc(F)cc1F` [Fluconazole] was tested, and the MIC (C. albicans CCARM 14020) was over 128 µM, the MIC (C. albicans CCARM 14007) was over 128 µM and the MIC (C. albicans CCARM 14001) was over 128 µM.

With `CC[C@H](C)[C@H](NC(=O)CN)C(=O)NCC(=O)N[C@@H](C)C(=O)N[C@H](C(=O)N[C@@H](CC(C)C)C(=O)N[C@@H](CCCCN)C(=O)N[C@H](C(=O)N[C@@H](CC(C)C)C(=O)N[C@H](C(=O)N[C@H](C(=O)NCC(=O)N[C@@H](CC(C)C)C(=O)N1CCC[C@H]1C(=O)N[C@@H](C)C(=O)N[C@@H](CC(C)C)C(=O)N[C@H](C(=O)N[C@@H](CO)C(=O)N[C@@H](Cc1c[nH]c2ccccc12)C(=O)N[C@H](C(=O)N[C@@H](CCCCN)C(=O)N[C@@H](CCCNC(=N)N)C(=O)N[C@@H](CCCCN)C(=O)N[C@@H](CCCNC(=N)N)C(=O)N[C@@H](CCC(N)=O)C(=O)N[C@@H](CCC(N)=O)C(N)=O)[C@@H](C)CC)[C@@H](C)CC)[C@@H](C)O)[C@@H](C)O)C(C)C)C(C)C` [Melittin] the MIC (S. aureus CCARM 3126; PBS (number in bracket)) was “(1.56) μM”, the MIC (S. aureus CCARM 3126; sodium phosphate buffer) was 1.56 µM (≈ 4.44 µg/mL) and the MIC (L. monocytogenes; PBS (number in bracket)) was “(1.56) μM”. For the same molecule, the MIC (L. monocytogenes; sodium phosphate buffer) was 1.56 µM (≈ 4.44 µg/mL), the MIC ([1]; PBS (number in bracket)) was “(6.25) μM” and the MIC ([1]; sodium phosphate buffer) was 3.12 µM (≈ 8.88 µg/mL). The MIC ([2]; PBS (number in bracket)) was “(12.5) μM”, the MIC ([2]; sodium phosphate buffer) was 6.25 µM (≈ 17.8 µg/mL) and the MIC ([3]; PBS (number in bracket)) was “(12.5) μM”. The MIC ([3]; sodium phosphate buffer) was 6.25 µM (≈ 17.8 µg/mL), the MIC (E. coli CCARM 1238; PBS (number in bracket)) was “(1.56) μM” and the MIC (E. coli CCARM 1238; sodium phosphate buffer) was 1.56 µM (≈ 4.44 µg/mL). For the same molecule, the MIC (S. aureus CCARM 3090; PBS (number in bracket)) was “(3.12) μM”, the MIC (S. aureus CCARM 3090; sodium phosphate buffer) was 3.12 µM (≈ 8.88 µg/mL) and the MIC (S. aureus CCARM 3114; PBS (number in bracket)) was “(3.12) μM”. For the same molecule, the MIC (S. aureus CCARM 3114; sodium phosphate buffer) was 3.12 µM (≈ 8.88 µg/mL), the MIC (S. aureus CCARM 3089; PBS (number in bracket)) was “(1.56) μM” and the MIC (S. aureus CCARM 3089; sodium phosphate buffer) was 1.56 µM (≈ 4.44 µg/mL). For the same molecule, the MIC (S. aureus CCARM 3108; PBS (number in bracket)) was “(1.56) μM” and the MIC (S. aureus CCARM 3108; sodium phosphate buffer) was 1.56 µM (≈ 4.44 µg/mL).

KWKWKWKW-NH2 [SEQ. ID. NO: 3] showed an MIC (S. aureus CCARM 3126; sodium phosphate buffer) of 12.5 µM.

Source: patent publication US10301354B2, “Antibacterial and fungicidal peptide in which lysine and tryptophan residues are repeated, and use thereof” (priority 2011, dated 2019)
